ChEMBL document CHEMBL1150192, “Tetracyclic Triterpenoids of the Fruit Coats of Azadirachta indica” (J Nat Prod, 1991)
Active and inactive are the calls of the source.

Experiments:
Type in all cases: functional, organism-based
Shigella dysenteriae = assay: Antimicrobial activity against Shigella dysenteriae
Proteus vulgaris = assay: Antimicrobial activity against Proteus vulgaris
Bacillus pumilus = assay: Antimicrobial activity against Bacillus pumilus
Klebsiella pneumoniae = assay: Antimicrobial activity against Klebsiella pneumoniae
Serratia marcescens = assay: Antimicrobial activity against Serratia marcescens
Salmonella paratyphi = assay: Antimicrobial activity against Salmonella paratyphi A; settings: Salmonella enterica subsp. enterica serovar Paratyphi A
Staphylococcus aureus = assay: Antimicrobial activity against Staphylococcus aureus
Bacillus subtilis = assay: Antimicrobial activity against Bacillus subtilis
Streptococcus pyogenes = assay: Antimicrobial activity against Streptococcus pyogenes
[1] = test system: Staphylococcus epidermidis; assay: Antimicrobial activity against Staphylococcus epidermidis
[2] = test system: Salmonella enterica subsp. enterica serovar Typhi str. CT18; assay: Antimicrobial activity against Salmonella typhi
Shigella sonnei = assay: Antimicrobial activity against Shigella sonnei
Escherichia coli = assay: Antimicrobial activity against Escherichia coli
Staphylococcus = assay: Antimicrobial activity against Staphylococcus citreus
Salmonella = assay: Antimicrobial activity against Salmonella schottmuelleri

Measured: Activity

CC(=O)O[C@@H]1C[C@H]2C(C)(C)C(=O)C=C[C@]2(C)[C@H]2CC[C@]3(C)C(=CC[C@H]3[C@@H](CO)C[C@H](O)C(=O)C(C)(C)O)[C@@]21C
inactive: all assays above
